One series relates to Streptococcus faecalis. Nature of the series: minimum inhibitory concentration, gradient plate method, Streptococcus faecalis. Set-up: key to partial resistancy, Bacteria, Str: partial resistancy observed. It is filed as cell-based. Conditions: for MIC: Enterococcus faecalis, 72 h, gradient 0-100 μg/ml, 10% aqueous dimethyl formamide, evaluated three days after inoculation, read-out: Minimum Inhibitory Concentration, Bacteria, Str. The text has this:
(§1) Test evaluation was made three days after inoculation.

Series [1] has as its system Staphylococcus aureus haemolyticus. Nature of the series: minimum inhibitory concentration, gradient plate method, Staphylococcus aureus haemolyticus. It is filed as cell-based. More on the design: key to partial resistancy, Bacteria, St: partial resistancy observed. Conditions: for MIC: 72 h, gradient 0-100 μg/ml, 10% aqueous dimethyl formamide, evaluated three days after inoculation, read-out: Minimum Inhibitory Concentration, Bacteria, St.
Text: as §1

Series [2] relates to Trichophyton mentagrophytes. Nature of the series: minimum inhibitory concentration, gradient plate method, Trichophyton mentagrophytes. Format: cell-based. Conditions: 72 h, gradient 0-100 μg/ml, 10% aqueous dimethyl formamide, evaluated three days after inoculation, read-out: Minimum Inhibitory Concentration, Fungi, Tri.
Text: as §1

The test system of a further series is mice. Conditions: oral, value as reported by Thienpont et al, Arzneimittelforschung 1975, 25, 224; cited from earlier work.
A further series deals with Aspergillus niger. Put plainly: minimum inhibitory concentration, gradient plate method, Aspergillus niger. It is filed as cell-based. Set-up: key to partial resistancy, Fungi, Asp: partial resistancy observed. The note with it: for MIC: 72 h, gradient 0-100 μg/ml, 10% aqueous dimethyl formamide, evaluated three days after inoculation, read-out: Minimum Inhibitory Concentration, Fungi, Asp.
Text: as §1

The next series is described as follows: in vivo. The note with it: mouse, po.
Series [3] is described as follows: oral toxicity LD50 per os, mice. The note with it: mouse, in vivo.
Text: (§2) The results of these tests are summarized in the following Table I together with the oral toxicity values (LD50 per os; mice, values in mg per kg of body weight) determined in the conventional manner.

Values after ≈ are worked out from the molar mass of the structure shown.

Text for in vivo: as §2

On to `Clc1ccc(COC(Cn2ccnc2)c2ccc(Cl)cc2Cl)cc1` (stereo not shown) [ECONAZOLE, reference compound], for which the MIC (with Streptococcus faecalis; in series [1]; in series [2]; in the series with Aspergillus niger) was under 10 µg/mL each time. Moreover, the “Toxicity LD50 per os” value in the series with mice was 462.7 mg/kg.

Take `Clc1ccc(SCOC(Cn2ccnc2)c2ccc(Cl)cc2Cl)nc1` (stereo not drawn) [Example 26, 1-β[(5'-chloropyridyl-2'-thiomethoxy)-2,4-dichlorophenethyl)]-imidazole nitrate]: the LD50 in the series “in vivo” was about 2700 mg/kg. The MIC in the series with Streptococcus faecalis is 20 µg/mL; in series [1], 10 µg/mL; in series [2], under 10 µg/mL; in the series with Aspergillus niger, under 10 µg/mL.

`Clc1ccc(C(Cn2ccnc2)OCCOc2ccccc2)c(Cl)c1` (stereo not drawn) [Example 27, 1-β-(phenoxyethoxy-2,4-dichlorophenethyl)-imidazole nitrate] came in with an LD50 in “in vivo” of about 800 mg/kg. Further, the MIC is 30 µg/mL in the series on Streptococcus faecalis, under 10 µg/mL in series [2] and under 10 µg/mL in the series on Aspergillus niger. In series [1], the “partial resistancy, Bacteria, St” value was “r”.

As to `Clc1ccc(OCCOC(Cn2ccnc2)c2ccc(Cl)cc2Cl)cc1` (stereo not drawn) [Example 28, 1-[β-(p-chlorophenoxyethoxy)-2,4-dichlorophenethyl)]-imidazole nitrate], in “in vivo”, the LD50 is over 3000 mg/kg. Besides, the MIC with Streptococcus faecalis is 10 µg/mL; in series [1] it was under 10 µg/mL; in series [2], under 10 µg/mL; in the series on Aspergillus niger, under 10 µg/mL.

`Clc1ccc(OCCCOC(Cn2ccnc2)c2ccc(Cl)cc2Cl)cc1` (stereo not drawn) [Example 30, 1-{β-[3-(p-chlorophenoxy)-propoxy-2,4-dichlorophenethyl]}-imidazole nitrate]: the LD50 in “in vivo” was over 4000 mg/kg. The MIC (in the series with Streptococcus faecalis; in series [1]; in series [2]; with Aspergillus niger) was under 10 µg/mL each time.

Regarding `Clc1ccc(SCCCOC(Cn2ccnc2)c2ccc(Cl)cc2Cl)cc1.O=[N+]([O-])O` (stereo not drawn) [Example 31, 1-{β-[3-(p-chlorophenylthio)-propoxy]-2,4-dichlorophenethyl}-imidazole nitrate], the MIC (with Streptococcus faecalis; in series [1]; in series [2]; in the series with Aspergillus niger) was under 10 µg/mL in each case. The same compound came in with an LD50 in series [3] of 4300 mg/kg.

In turn, `Clc1ccc(C(Cn2ccnc2)SCCCOc2ccccc2)c(Cl)c1` (stereo not drawn) [Example 32, 1-[β-(phenoxypropylthio)-2,4-dichlorophenethyl]-imidazole] showed an LD50 in the series “in vivo” of over 2000 mg/kg. In the series on Streptococcus faecalis, the “partial resistancy, Bacteria, Str” value is “r”. The MIC (in series [1]; in series [2]; in the series on Aspergillus niger) was under 10 µg/mL each time.

`Clc1ccc(OCCCSC(Cn2ccnc2)c2ccc(Cl)cc2Cl)cc1` (stereo not drawn) [Example 33, 1-{β-[3-(p-chlorophenoxy)-propylthio-2,4-dichlorophenethyl]}-imidazole] registered an LD50 in the series “in vivo” of over 1000 mg/kg. Further, the MIC in the series with Streptococcus faecalis was 10 µg/mL (≈ 22.6 µM); in series [1] it was under 10 µg/mL; in series [2], under 10 µg/mL; in the series with Aspergillus niger it was 25 µg/mL (≈ 56.6 µM).

In “in vivo”, `Clc1ccc(SCCCSC(Cn2ccnc2)c2ccc(Cl)cc2Cl)cc1` (stereo not drawn) [Example 34, 1-{β-[3-(p-chlorophenylthiopropylthio)]-2,4-dichlorophenethyl}-imidazole nitrate] yielded an LD50 of over 3000 mg/kg. In addition, the “partial resistancy, Bacteria, Str” value with Streptococcus faecalis is “r”. The MIC in series [1] is 10 µg/mL; in series [2], under 10 µg/mL. For the same compound, the “partial resistancy, Fungi, Asp” value in the series on Aspergillus niger is “r”.

Turning to `Clc1ccc(OCCCCOC(Cn2ccnc2)c2ccc(Cl)cc2Cl)cc1.O=[N+]([O-])O` (stereo not drawn) [Example 35, 1-{β-[4-(p-chlorophenoxy)-butoxy]-2,4-dichlorophenethyl}-imidazole nitrate], in the series on Streptococcus faecalis, the “partial resistancy, Bacteria, Str” value was “r”. The MIC was 10 µg/mL in series [1], under 10 µg/mL in series [2] and under 10 µg/mL in the series on Aspergillus niger. Moreover, in series [3], the LD50 is over 4000 mg/kg.

Consider `Clc1ccc(SCCCCOC(Cn2ccnc2)c2ccc(Cl)cc2Cl)cc1` (stereo not drawn) [Example 36, 1-{β-[4-(p-chlorophenylthio)-butoxy]-2,4-dichlorophenethyl}-imidazolenitrate], for which, in “in vivo”, the LD50 was over 3000 mg/kg. Also, the “partial resistancy, Bacteria, Str” value in the series on Streptococcus faecalis is on record as “r”. Also, the MIC was under 10 µg/mL in series [1], under 10 µg/mL in series [2] and 35 µg/mL (≈ 76.8 µM) in the series with Aspergillus niger.

As usually defined, the LD50 is the dose expected to kill half of the subjects tested.

The record behind these values is US4177350A, “Imidazole ethyl oxyalkoxy derivatives and thio analogues thereof” (Siegfried Aktiengesellschaft, priority 1977, dated 1979).
